# Laboratory results reported in patent US8466089B2, “Pyrazole compounds, process for their production and herbicides containing them” (Ishihara Sangyo Kaisha, Ltd., priority 2008, dated 2013).
# Assays:
# Assay type in all cases: in vivo
# corn (Zea mays L.) [1] = assay: Test Example 4, foliar treatment, safety to crop plants versus Reference Compounds; conditions: 3.5 to 15 g/ha, 14th to 28th day after application, test written in present tense
# Text: (§1) Upland field soil is put into a 1/1,000,000 hectare pot, and seeds of various plants are sown. When the respective plants reach predetermined leaf stage ((1) velvetleaf (Abutilon theophrasti MEDIC.), (2) guineagrass (Panicum maximum Jacq.), (3) green foxtail (Setaria viridis L.), and (4) corn (Zea mays L.), a wettable powder of compound No. 2-1 of the above-mentioned present invention, an emulsifiable concentrate of the following Reference Compound 1 and a wettable powder of the following Reference Compound 2, prepared in accordance with a conventional preparation method, are weighed so that the active ingredients become the prescribed amounts 3.5 to 15 g/ha, and diluted with water in an amount corresponding to 300 liter per 1 hectare (containing 0.5 vol % of an agricultural spreader (MSO concentrate, manufactured by Cognis Corporation). The spray solutions thus prepared are applied for foliar treatment by a small sprayer.
# [2] = tested on: green foxtail (Setaria viridis L.); assay: Test Example 5, foliar treatment versus Reference Compounds; conditions: 5.0 to 5.5 leaf stage, 18th day after application, read-out: Growth inhibition rate (%) (18th day after application) Green foxtail
# Text: (§2) Upland field soil was put into a 1/1,000,000 hectare pot, and seeds of various plants were sown. When the respective plants reached predetermined leaf stage ((1) velvetleaf (Abutilon theophrasti MEDIC.): 3.0 to 3.5 leaf stage, (2) giant foxtail (Setaria faberi Herrm.): 4.0 to 4.5 leaf stage, (3) green foxtail (Setaria viridis L.): 5.0 to 5.5 leaf stage, and (4) corn (Zea mays L.): 4.0 to 4.3 leaf stage, a wettable powder of compound No. 2-1 of the above-mentioned present invention, a wettable powder of the above-mentioned Reference Compound 1 and a wettable powder of the above-mentioned Reference Compound 2, prepared in accordance with a conventional preparation method, were weighed so that the active ingredients became the prescribed amounts, and diluted with water in an amount corresponding to 300 liter per 1 hectare (containing 0.5 vol % of an agricultural spreader (Destiny HC: WINFIELD SOLUTIONS by LLC). The spray solutions thus prepared were applied for foliar treatment by a small sprayer.
# (§3) On the 7th to 20th day after application, the state of growth of the respective plants was visually observed, and the herbicidal effect was evaluated by a growth inhibition rate (%) of 0 (equivalent to the non-treated area) to 100% (complete kill).
# [3] = tested on: velvetleaf (Abutilon theophrasti MEDIC.); assay: as above; conditions: 3.0 to 3.5 leaf stage, 20th day after application, read-out: Growth inhibition rate (%) (20th day after application) Velvet leaf
# Text: as §2, §3
# [4] = tested on: giant foxtail (Setaria faberi Herrm.); assay: as above; conditions: 4.0 to 4.5 leaf stage, 20th day after application, read-out: Growth inhibition rate (%) (20th day after application) Giant foxtail
# Text: as §2, §3
# corn (Zea mays L.) [5] = assay: as above; conditions: 4.0 to 4.3 leaf stage, 7th day after application, read-out: Growth inhibition rate (%) (7th day after application) Corn
# Text: as §2, §3
# [6] = tested on: velvetleaf (Abutilon theophrasti MEDIC.), guineagrass (Panicum maximum Jacq.), green foxtail (Setaria viridis L.); assay: Test Example 4, foliar treatment, herbicidal effect versus Reference Compounds; conditions: 3.5 to 15 g/ha, 14th to 28th day after application, test written in present tense
# Text: as §1
smiles,measurement,setting,value
"CCn1ncc(C(=O)c2ccc(S(C)(=O)=O)c(OCCOC)c2C)c1OC(C)OC(=O)OC (stereo not drawn) [Compound No. 2-1, 1-(1-Ethyl-4-(3-(2-methoxyethoxy)-2-methyl-4-(methylsulfonyl)benzoyl)-1H-pyrazol-5-yloxy)ethyl methyl carbonate]",safety to crop plants as compared to Reference Compounds,corn (Zea mays L.) [1],excellent safety to crop plants
same,inhibition at 7 g/ha,[2],70%
same,inhibition at 3.5 g/ha,[3],80%
same,inhibition at 3.5 g/ha,[4],83%
same,inhibition at 90 g/ha,corn (Zea mays L.) [5],0%
same,herbicidal effect as compared to Reference Compounds,[6],superior herbicidal effects
